Test results: article PMC6931042 (Bioorganic chemistry, 2018)

Tests used:
K-562 = test: NCI in vitro five dose anticancer assay; type: cell-based, human; conditions: Leukemia; K-562; five dose assay
RPMI-8226 = test: NCI in vitro five dose anticancer assay; type: cell-based, human; conditions: Leukemia, five dose assay
A549/ATCC = test: NCI in vitro five dose anticancer assay; type: cell-based, human; conditions: Non-small cell lung cancer; A549/ATCC; five dose assay
HOP-62 = test: NCI in vitro five dose anticancer assay; type: cell-based, human; conditions: Non-small cell lung cancer, five dose assay
NCI-H23 = test: NCI in vitro five dose anticancer assay; type: cell-based, human; conditions: Non-small cell lung cancer, five dose assay
NCI-H322M = test: NCI in vitro five dose anticancer assay; type: cell-based, human; conditions: Non-small cell lung cancer, five dose assay
NCI-H460 = test: NCI in vitro five dose anticancer assay; type: cell-based, human; conditions: Non-small cell lung cancer, five dose assay
NCI-H522 = test: NCI in vitro five dose anticancer assay; type: cell-based, human; conditions: Non-small cell lung cancer, five dose assay
COLO 205 = test: NCI in vitro five dose anticancer assay; type: cell-based, human; conditions: Colon cancer, five dose assay
HCT-15 = test: NCI in vitro five dose anticancer assay; type: cell-based, human; conditions: Colon cancer, five dose assay
HT29 = test: NCI in vitro five dose anticancer assay; type: cell-based, human; conditions: Colon cancer; HT29; five dose assay
KM12 = test: NCI in vitro five dose anticancer assay; type: cell-based, human; conditions: Colon cancer, five dose assay
SW-620 = test: NCI in vitro five dose anticancer assay; type: cell-based, human; conditions: Colon cancer, five dose assay
SF-268 = test: NCI in vitro five dose anticancer assay; type: cell-based, human; conditions: CNS cancer, five dose assay
SF-295 = test: NCI in vitro five dose anticancer assay; type: cell-based, human; conditions: CNS cancer, five dose assay
SNB-19 = test: NCI in vitro five dose anticancer assay; type: cell-based, human; conditions: CNS cancer, five dose assay
U251 = test: NCI in vitro five dose anticancer assay; type: cell-based, human; conditions: CNS cancer; U251; five dose assay
PC-3 = test: NCI in vitro five dose anticancer assay; type: cell-based, human; conditions: Prostate cancer, five dose assay
MALME-3M = test: NCI in vitro five dose anticancer assay; type: cell-based, human; conditions: Melanoma; MALME-3M; five dose assay
M14 = test: NCI in vitro five dose anticancer assay; type: cell-based, human; conditions: Melanoma, five dose assay
SK-MEL-28 = test: NCI in vitro five dose anticancer assay; type: cell-based, human; conditions: Melanoma, five dose assay
IGROV1 = test: NCI in vitro five dose anticancer assay; type: cell-based, human; conditions: Ovarian cancer; IGROV1; five dose assay
OVCAR-3 = test: NCI in vitro five dose anticancer assay; type: cell-based, human; conditions: Ovarian cancer, five dose assay
786–0 = test: NCI in vitro five dose anticancer assay; type: cell-based, human; conditions: Renal cancer; 786–0; five dose assay
ACHN = test: NCI in vitro five dose anticancer assay; type: cell-based, human; conditions: Renal cancer, five dose assay
RXF 393 = test: NCI in vitro five dose anticancer assay; type: cell-based, human; conditions: Renal cancer, five dose assay
SN12C = test: NCI in vitro five dose anticancer assay; type: cell-based, human; conditions: Renal cancer, five dose assay
TK-10 = test: NCI in vitro five dose anticancer assay; type: cell-based, human; conditions: Renal cancer, five dose assay
MDA-MB231/ATCC = test: NCI in vitro five dose anticancer assay; type: cell-based, human; conditions: Breast cancer; MDA-MB231/ATCC; five dose assay
HS 578T = test: NCI in vitro five dose anticancer assay; type: cell-based, human; conditions: Breast cancer; HS 578T; five dose assay
NCI 60 cell lines = test: NCI single dose; type: cell-based, human; conditions: 10 μM single dose; 48 h; mean over NCI 60 cell lines
A549 and K-562 cells = test: Cytotoxicity IC50 stated jointly for the 2 cell lines; type: cell-based, human; conditions: read-out: IC50 against the 2 cell lines tested; range over A549 and K-562
K-562 cells [1] = test: Cell cycle analysis by flow cytometry; type: cell-based, human; conditions: 24 h
A549 cells = test: Apoptosis, annexin V-FITC/PI flow cytometry; type: cell-based, human; conditions: for percentage of apoptotic cells: 48 h
K-562 cells [2] = test: Apoptosis, annexin V-FITC/PI flow cytometry; type: cell-based, human; conditions: 24 h
class I PI3K enzymes = test: PI3K biochemical assay, all isoforms stated jointly; conditions: read-out: IC50s against the different PI3K isoforms; range over PI3K-α, β, γ, δ
[3] = test system: p53, p21, cyclin B1 and Cdc2 in A549 cells; test: Western blotting, p53 and cell cycle regulators; type: cell-based, human; conditions: 1, 3 and 6 μM, western blot
[4] = test system: p53, p21, cyclin B1 and Cdc2 in K-562 cells; test: Western blotting, p53 and cell cycle regulators; type: cell-based, human; conditions: 1, 3 and 6 μM, western blot
[5] = test system: Bcl-2, Bax, and cleaved caspases (3, 8, and 9) in A549 cells; test: Western blotting, apoptosis markers; type: cell-based, human; conditions: 48 h, 1, 3 and 6 μM, western blot
[6] = test system: Bax and cleaved caspases (3, 8, and 9) in K-562 cells; test: Western blotting, apoptosis markers; type: cell-based, human; conditions: 24 h, 1, 3 and 6 μM, western blot
[7] = test system: p-PI3K, p-Akt, p-mTOR and p-GSK-3β in K-562 cells; test: Western blotting, PI3K/Akt/mTOR pathway; type: cell-based, human; conditions: 1, 3, or 6 μM, western blot, dose-dependent
PI3K-β = PI3K-β (Homo sapiens, UniProt P42338); test: PI3K biochemical assay; conditions: read-out: IC50 (nM) PI3K-β; ADP-Glo; ATP 30 μM
Chain of PI3K-β (P42338 whole entry): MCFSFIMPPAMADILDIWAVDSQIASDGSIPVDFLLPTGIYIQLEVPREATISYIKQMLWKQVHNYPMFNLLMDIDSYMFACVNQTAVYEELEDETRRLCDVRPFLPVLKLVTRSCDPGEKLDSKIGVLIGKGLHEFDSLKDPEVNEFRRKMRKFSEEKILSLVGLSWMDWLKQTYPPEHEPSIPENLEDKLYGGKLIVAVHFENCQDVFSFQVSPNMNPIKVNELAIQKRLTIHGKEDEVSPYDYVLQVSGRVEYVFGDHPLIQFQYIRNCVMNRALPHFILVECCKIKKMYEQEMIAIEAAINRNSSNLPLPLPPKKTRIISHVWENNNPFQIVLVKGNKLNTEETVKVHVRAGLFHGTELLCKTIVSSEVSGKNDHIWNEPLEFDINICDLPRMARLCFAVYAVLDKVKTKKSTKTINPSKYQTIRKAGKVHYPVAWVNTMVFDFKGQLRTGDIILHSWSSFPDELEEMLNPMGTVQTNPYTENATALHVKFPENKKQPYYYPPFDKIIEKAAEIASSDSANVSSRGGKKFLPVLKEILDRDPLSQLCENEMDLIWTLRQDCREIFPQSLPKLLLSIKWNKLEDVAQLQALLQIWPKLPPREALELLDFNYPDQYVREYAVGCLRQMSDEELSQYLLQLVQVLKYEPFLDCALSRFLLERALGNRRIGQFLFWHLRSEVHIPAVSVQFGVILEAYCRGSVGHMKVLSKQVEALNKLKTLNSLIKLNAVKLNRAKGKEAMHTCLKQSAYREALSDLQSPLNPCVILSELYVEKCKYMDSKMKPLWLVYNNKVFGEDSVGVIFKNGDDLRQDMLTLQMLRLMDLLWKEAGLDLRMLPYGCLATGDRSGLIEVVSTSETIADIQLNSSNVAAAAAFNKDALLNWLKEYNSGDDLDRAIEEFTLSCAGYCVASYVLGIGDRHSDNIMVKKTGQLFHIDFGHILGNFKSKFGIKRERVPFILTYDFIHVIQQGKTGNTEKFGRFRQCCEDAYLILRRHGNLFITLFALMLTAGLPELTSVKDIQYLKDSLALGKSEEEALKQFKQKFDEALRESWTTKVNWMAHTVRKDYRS
Chain of PI3K-β (P27986 whole entry partner): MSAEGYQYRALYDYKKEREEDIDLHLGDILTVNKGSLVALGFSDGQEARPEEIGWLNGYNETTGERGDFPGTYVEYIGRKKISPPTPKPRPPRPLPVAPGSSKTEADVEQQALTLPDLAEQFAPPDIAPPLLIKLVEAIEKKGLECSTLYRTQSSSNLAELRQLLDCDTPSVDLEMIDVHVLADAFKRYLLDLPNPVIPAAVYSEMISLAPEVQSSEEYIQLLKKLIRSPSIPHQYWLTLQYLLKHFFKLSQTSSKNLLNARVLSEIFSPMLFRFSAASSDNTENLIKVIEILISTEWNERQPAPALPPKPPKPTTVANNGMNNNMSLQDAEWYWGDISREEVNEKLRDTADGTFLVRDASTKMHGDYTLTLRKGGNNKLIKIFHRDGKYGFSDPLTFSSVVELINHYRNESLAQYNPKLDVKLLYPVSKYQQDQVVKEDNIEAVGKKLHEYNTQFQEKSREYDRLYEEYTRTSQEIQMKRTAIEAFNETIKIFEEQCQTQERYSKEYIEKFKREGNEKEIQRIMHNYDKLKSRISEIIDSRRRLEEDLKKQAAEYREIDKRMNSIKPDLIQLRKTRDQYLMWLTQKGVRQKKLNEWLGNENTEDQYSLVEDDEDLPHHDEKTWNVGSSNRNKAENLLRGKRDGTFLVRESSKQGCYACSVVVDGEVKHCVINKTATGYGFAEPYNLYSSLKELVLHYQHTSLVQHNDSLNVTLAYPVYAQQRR

## COc1ccc(-c2cc(C(=O)NN=C(/C=C\c3ccc(Cl)cc3)c3ccc(N)cc3)c3ccccc3n2)cc1 [Compound 9i, N’-((Z)-1-(4-Aminophenyl)-3-(4-chlorophenyl)allylidene)-2-(4-methoxphenyl)quinoline-4-carbohydrazide]
K-562
  GI50: 1050 nM
RPMI-8226
  GI50: 3860 nM
A549/ATCC
  GI50: 2330 nM
HOP-62
  GI50: 3210 nM
NCI-H23
  GI50: 3140 nM
NCI-H322M
  GI50: 6000 nM
NCI-H460
  GI50: 1890 nM
NCI-H522
  GI50: 307 nM
COLO 205
  GI50: 1990 nM
HCT-15
  GI50: 1030 nM
HT29
  GI50: 1130 nM
KM12
  GI50: 1150 nM
SW-620
  GI50: 1240 nM
SF-268
  GI50: 2190 nM
SF-295
  GI50: 540 nM
SNB-19
  GI50: 5540 nM
U251
  GI50: 2180 nM
PC-3
  GI50: 2030 nM
MALME-3M
  GI50: > 100000 nM
M14
  GI50: 1160 nM
SK-MEL-28
  GI50: 3780 nM
IGROV1
  GI50: 4980 nM
OVCAR-3
  GI50: 462 nM
786–0
  GI50: 1840 nM
ACHN
  GI50: 1470 nM
RXF 393
  GI50: 698 nM
SN12C
  GI50: 4270 nM
TK-10
  GI50: 52300 nM
MDA-MB231/ATCC
  GI50: 3280 nM
HS 578T
  GI50: 1050 nM
NCI 60 cell lines
  mean growth inhibition: 73.03%
A549 and K-562 cells
  IC50: 1910 to 5290 nM
K-562 cells [1]; 1 μM
  percentage of cells in the G2/M phase: 2.95%
K-562 cells [1]; 3 μM
  percentage of cells in the G2/M phase: 30.7%
K-562 cells [1]; 6 μM
  percentage of cells in the G2/M phase: 49.3%
A549 cells; 1 μM
  percentage of apoptotic cells: 13.21%
A549 cells; 3 μM
  percentage of apoptotic cells: 22.73%
A549 cells; 6 μM
  percentage of apoptotic cells: 35.9%
A549 cells; 1, 3, or 6 μM, 24 h, data not shown
  proportion of apoptotic cells compared to control: did not result in changes
K-562 cells [2]; 1 μM
  percentage of apoptotic cells: 25.79%
K-562 cells [2]; 3 μM
  percentage of apoptotic cells: 46.2%
K-562 cells [2]; 6 μM
  percentage of apoptotic cells: 46.6%
Class I PI3K enzymes
  IC50: 52 to 473 nM
[3]
  expression of wild type p53: upregulated
[3]; dose dependent
  expression of Cdc2: attenuated
  expression of cyclin B1: attenuated
  expression of p21: significantly induced
[4]
  expression of non-functional p53: no effect
[4]; dose dependent
  expression of Cdc2: attenuated
  expression of cyclin B1: attenuated
  expression of p21: significantly induced
[5]
  levels of Bcl-2: decreased
  levels of cleaved caspase 8: not altered
[5]; dose-dependent
  levels of Bax: increased
  levels of cleaved caspase 3: increased
  levels of cleaved caspase 9: increased
[6]
  levels of cleaved caspase 8: not change
[6]; dose-dependent
  levels of Bax: increased
  levels of cleaved caspase 3: increased
  levels of cleaved caspase 9: increased
[7]
  levels of phosphorylated Akt (at Ser473): decreases
  levels of phosphorylated GSK-3β: decreases
  levels of phosphorylated PI3K (at Tyr458): decreases
  levels of phosphorylated mTOR (at Ser2448): decreases
PI3K-β
  IC50: 296 nM
